{"source": "paper PMC12211128", "about": "“Safety, tolerability, pharmacokinetic and pharmacodynamic effects of the muscarinic M1 positive allosteric modulator VU0467319 for Alzheimer’s disease: a single ascending-dose study in healthy participants” (Alzheimer's Research & Therapy, 2025)", "key": {"animal models": {"tested_on": "animal models", "set-up": "method as in PMID 39660766", "conditions": "preclinical and IND-enabling studies; cited from earlier work"}, "healthy participants [1]": {"tested_on": "healthy participants", "test": "Clinical laboratory parameters", "assay_type": "in vivo, human", "conditions": "food effect study, 120 mg; 72 h post-dose, closer to normal by 144 h", "procedure": "(§1) Safety and tolerability were assessed throughout the study via treatment emergent adverse event (TEAE) monitoring, vital signs (blood pressure, pulse rate, respiration rate, oral temperature), physical examinations, 12-lead ECGs, and clinical laboratory parameters including complete blood count (CBC), coagulation, hematology, clinical chemistry assessments, and urinalysis. Safety laboratory tests were drawn at pre-dose and at 5, 24, 36 and 144-hours post-dose for 60–400 mg Cohorts; and at 24, 48, 72 and 144-hours post-dose for the 600 mg and Food Effect Cohort. ECG assessments were conducted at pre-dose and at 1, 2, 3, 5, 9, 24, 36 and 144-hours post-dose for 60–400 mg Cohorts; and at 2, 3, 5, 9, 24, 36, 72 and 144-hours post-dose for the 600 mg and Food Effect Cohort. All adverse events (AEs) were assessed by the investigator for severity and relationship to study medication or study procedures."}, "healthy participants [2]": {"tested_on": "healthy participants", "test": "Critical flicker fusion task (CFF)", "assay_type": "in vivo, human", "conditions": "for CFF Median Ascending score / CFF Median Descending score: mean (SD)", "excerpt": "(§2) The critical flicker fusion task (CFF; [30]) was used to test perceptual vigilance using the frequency of a flickering LED (between 12 and 50 Hz). The outcome variable for CFF is frequency (Hz) for ascending and descending trials. In the ascending trials, the participants pressed a button indicating when the light flickered to a speed where they appear to be continuously on or fused. In the descending trials, the participants pressed a button when the frequency of apparently fused lights is decreased such that lights begin to appear to be flashing.\nCognitive data: In this exploratory analysis, each outcome variable of the cognitive data was examined in a mixed model analysis of variance with one between-subjects factor of VU319 dose (0, 60, 120, 240, 400, 600 mg) and a within-subjects factor of testing session (pre-dose vs. post-dost administration). Post-hoc analysis compared each of the VU319 dose cohorts against the placebo group. Because the participants were healthy adults with normal cognitive function, we considered effects between no reductions in function to small improvement (d = 0.0–0.20) to be a positive result. For the food effect study, only the participants who received VU319 were examined due to the disproportionately small placebo group (n = 2). A within-subjects ANOVA including food condition (fasted/fed) and testing session (pre-dose vs. post-dose administration) was performed on each outcome variable.\nas §2, with “(Kupke & Lewis, 1989))” for “[30])”, “12-50” for “12 and 50”"}, "healthy participants [3]": {"tested_on": "healthy participants", "test": "Treatment emergent adverse event (TEAE) monitoring", "assay_type": "in vivo, human", "procedure": "as §1\nAll AEs were coded using the Medical Dictionary for Regulatory Activities (MedDRA) version 22.0. All AEs were listed, and the emergence of TEAEs were categorized by body system affected and analyzed to determine whether they were related to treatment. Analysis of TEAEs for VU319 vs. Placebo were completed using Fisher’s Exact Test. Assessment of the grade of toxicity or relation to the study drug for each adverse event was determined by the Investigator. Changes in vital signs, physical examination, and laboratory tests were collected. Changes in vital signs from pre-dose to 48 h post-dose were placed into 10-time bins and assessed using mixed-measures ANOVA with the time bins as the within-subjects factor and dose as the between-subjects factor. To assess changes is QT analyses with respect to VU319 concentration, we calculated the maximal change in QTcF from baseline for each participant. We assessed the relationship between these maximal changes from baseline with the participant’s Cmax using Pearson correlations. Outlier QTcF values (> 450 ms) were also assessed against PK concentrations to examine it there was any relationship using Pearson correlations. Analyses of safety data was completed by SAS version 9.4."}, "[4]": {"conditions": "Food effect study 120 mg, Fasting, Post-Drug"}, "[5]": {"conditions": "Food effect study 120 mg, Fasting, Pre-Drug"}, "[6]": {"conditions": "Food effect study 120 mg, Fed, Post-Drug"}, "[7]": {"conditions": "Food effect study 120 mg, Fed, Pre-Drug"}}, "note": "“Also recorded” adds a separate entry of the source."}
{"smiles": "Cn1cc2c(-c3cc(F)c(CN4Cc5ncccc5C4=O)c(F)c3)cccc2n1", "note": "[VU319]", "values": [{"measurement": "SLUDGE effects in animal models", "setting": "animal models", "result": "without producing SLUDGE effects"}, {"measurement": "cognition in animal models", "setting": "animal models", "result": "effective at improving cognition"}, {"measurement": "ALT and AST levels", "setting": "healthy participants [1]", "result": "moderate increase in ALT and AST levels reported by one participant"}, {"measurement": "CFF Median Ascending score", "setting": "healthy participants [2]; [4]", "result": "39.03 (5.2) Hz"}, {"measurement": "CFF Median Descending score", "setting": "healthy participants [2]; [4]", "result": "38.59 (4.57) Hz"}, {"measurement": "CFF Median Ascending score", "setting": "healthy participants [2]; [5]", "result": "34.62 (9.06) Hz"}, {"measurement": "CFF Median Descending score", "setting": "healthy participants [2]; [5]", "result": "38.49 (5.19) Hz"}, {"measurement": "CFF Median Ascending score", "setting": "healthy participants [2]; [6]", "result": "39.29 (4.38) Hz"}, {"measurement": "CFF Median Descending score", "setting": "healthy participants [2]; [6]", "result": "39.36 (4.08) Hz"}, {"measurement": "CFF Median Ascending score", "setting": "healthy participants [2]; [7]", "result": "39.09 (5.81) Hz"}, {"measurement": "CFF Median Descending score", "setting": "healthy participants [2]; [7]", "result": "39.25 (3.25) Hz"}, {"measurement": "CFF Median Ascending score", "setting": "healthy participants [2]; SAD study, 60 mg, Post-Drug", "result": "37.67 (3.1) Hz"}, {"measurement": "CFF Median Descending score", "setting": "healthy participants [2]; SAD study, 60 mg, Post-Drug", "result": "38.32 (7.51) Hz"}, {"measurement": "CFF Median Ascending score", "setting": "healthy participants [2]; SAD study, 60 mg, Pre-Drug", "result": "36.32 (4.6) Hz"}, {"measurement": "CFF Median Descending score", "setting": "healthy participants [2]; SAD study, 60 mg, Pre-Drug", "result": "37 (5.35) Hz"}, {"measurement": "CFF Median Ascending score", "setting": "healthy participants [2]; SAD study, 120 mg, Post-Drug", "result": "36.53 (3.87) Hz"}, {"measurement": "CFF Median Descending score", "setting": "healthy participants [2]; SAD study, 120 mg, Post-Drug", "result": "38.68 (3.31) Hz"}, {"measurement": "CFF Median Ascending score", "setting": "healthy participants [2]; SAD study, 120 mg, Pre-Drug", "result": "37.33 (2.38) Hz"}, {"measurement": "CFF Median Descending score", "setting": "healthy participants [2]; SAD study, 120 mg, Pre-Drug", "result": "40.23 (4.95) Hz"}, {"measurement": "CFF Median Ascending score", "setting": "healthy participants [2]; SAD study, 240 mg, Post-Drug", "result": "38.12 (4.1) Hz"}, {"measurement": "CFF Median Descending score", "setting": "healthy participants [2]; SAD study, 240 mg, Post-Drug", "result": "37.25 (6.89) Hz"}, {"measurement": "CFF Median Ascending score", "setting": "healthy participants [2]; SAD study, 240 mg, Pre-Drug", "result": "32.72 (9.97) Hz"}, {"measurement": "CFF Median Descending score", "setting": "healthy participants [2]; SAD study, 240 mg, Pre-Drug", "result": "37.1 (6.52) Hz"}, {"measurement": "CFF Median Ascending score", "setting": "healthy participants [2]; SAD study, 400 mg, Post-Drug", "result": "39.98 (3.97) Hz"}, {"measurement": "CFF Median Descending score", "setting": "healthy participants [2]; SAD study, 400 mg, Post-Drug", "result": "40.05 (3.01) Hz"}, {"measurement": "CFF Median Ascending score", "setting": "healthy participants [2]; SAD study, 400 mg, Pre-Drug", "result": "37.92 (3.7) Hz"}, {"measurement": "CFF Median Descending score", "setting": "healthy participants [2]; SAD study, 400 mg, Pre-Drug", "result": "39.67 (2.1) Hz"}, {"measurement": "CFF Median Ascending score", "setting": "healthy participants [2]; SAD study, 600 mg, Post-Drug", "result": "36.58 (3.14) Hz"}, {"measurement": "CFF Median Descending score", "setting": "healthy participants [2]; SAD study, 600 mg, Post-Drug", "result": "39.73 (5.18) Hz"}, {"measurement": "CFF Median Ascending score", "setting": "healthy participants [2]; SAD study, 600 mg, Pre-Drug", "result": "35.45 (3.61) Hz"}, {"measurement": "CFF Median Descending score", "setting": "healthy participants [2]; SAD study, 600 mg, Pre-Drug", "result": "39.22 (5.92) Hz"}, {"measurement": "CFF ascending trial, effect of dose", "setting": "healthy participants [2]; SAD study, both p > 0.3", "result": "no effect of dose, nor a dose by time interaction"}, {"measurement": "CFF ascending condition, post- vs pre-dose, effect size d", "setting": "healthy participants [2]; food effect study, 120 mg, p = 0.07", "result": 1.37}, {"measurement": "TEAEs, VU319 vs placebo (Fisher's Exact Tests)", "setting": "healthy participants [3]; in vivo", "result": "did not show a significant difference"}, {"measurement": "number of TEAEs across the 5 active dose cohorts", "setting": "healthy participants [3]; in vivo", "result": 33}, {"measurement": "serious TEAEs, deaths, discontinuations", "setting": "healthy participants [3]; single oral doses 60-600 mg", "result": "No TEAE was rated as serious; also recorded: no serious TEAEs or discontinuations occurred; also recorded: no deaths, serious TEAEs, or TEAEs leading to discontinuation"}, {"measurement": "tolerability", "setting": "healthy participants [3]; single oral doses 60 to 600 mg, healthy volunteers aged 18-55", "result": "Tolerability was good; also recorded: generally well tolerated"}, {"measurement": "maximum tolerated dose (MTD)", "setting": "healthy participants [3]; single oral doses up to 600 mg", "result": "not achieved"}]}
